Tests used:
rats = assay: Acute toxicity, lethal doses two days after intraperitoneal treatment; format: in vivo; details: rat
Method: (§1) The products tested are dissolved in a […] sodium chloride solution or, if they are insoluble in this solution, suspended using "Tween 80" (for oral and intraperitoneal administration) or dissolved in polyethylene glycol 300 (for intravenous administration).
The acute toxicity is determined on batches, each of two rats. The doses administered extend from 4 to 512 mg./kg. in geometrical progression, constant ratio 2.
Table II below gives the 0 to 100 (%) lethal doses, two days after treatment, in mg./kg. administered intraperitoneally.

[1] = tested on: phenylbenzoquinone-induced reactions (stretching of the body); assay: Antalgic activity: inhibition of phenylbenzoquinone-induced stretching; format: in vivo; details: Mus musculus, 1 h, read-out: percentage inhibition relative to control animals; for inhibition in vivo at 16 mg/kg / inhibition in vivo at 64 mg/kg / inhibition in vivo at 32 mg/kg: mice, oral; for inhibition in vivo at 128 mg/kg: po
Method: as §1
The products to be tested are administered orally to batches of six mice each weighing 19-21 g. One hour afterwards, 0.20 ml. of an aqueous-alcoholic solution containing 0.02% of phenylbenzoquinone (phenylbenzoquinone: 20 mg, 96% alcohol; 5 ml; water q.s.p. 100 ml) is injected intraperitoneally. The number of reactions (stretching of the body) from the 5th to the 10th minutes following the injection of phenylbenzoquinone is counted.
Table IV gives the percentage inhibition relative to control animals. __________________________________________________________________________ Compound of Example No. Dose, mg/kg 1 2 3 administered and 4 5 7 9 10 11 12 13 14 15 16 18 19 20 orally 6 17 8 __________________________________________________________________________ 16 10 57 -- 23 -- 25 14 21 22 45 24 35 29 40 43 3 26 32 -- 38 37 -- 0 -- -- -- -- -- -- -- -- -- -- -- -- 64 31 63 -- 17 -- 25 19 46 38 36 24 38 29 28 55 26 38 128 -- -- 41 -- 19 -- -- -- -- -- -- -- -- -- -- -- -- __________________________________________________________________________

[2] = Solubility under the conditions of the local anaesthetic test; format: physicochemical; details: sodium chloride solution, pH of 6 to 7
Method: This is investigated by the technique of Bulbring and Wajda. The backs of male guinea pigs weighing 350-450 g. are shaved with an electric razor. 0.1 ml. of a solution of the compounds to be tested is injected into the dermis (only those products which are soluble in the sodium chloride solution and give a pH of 6 to 7 are examined). Four points spaced 2 cm apart are marked on the skin, the product being administered at two of these and the solvent being administered at the remaining two. The skin reflex is examined by pricking each point six times with a mounted bristle. The number of positive reactions is counted and an inhibition percentage is calculated from the total number of positive reactions over the course of 30 minutes. Table V gives the inhibition percentages measured as a function of the concentrations of the solutions. The compounds of Examples 7, 18 and 19 are insoluble under the experimental conditions.

[3] = tested on: cough reaction to stimulation of the upper laryngeal nerves; assay: Anti-tussive activity: Domenjoz method (stimulation of upper laryngeal nerves); format: in vivo, cat; design: key: 0: inactive; +: marked diminution of cough; ++: suppression of cough for 5 to 15 minutes; +++: suppression of cough for more than 15 minutes; details: anaesthetised cats, intravenous (femoral vein)
Method: as §1
Cats are anaesthetised by intraperitoneal injection of 30 mg./kg. of sodium mebubarbital. The arterial pressure is measured on the femoral artery by a Statham P 23 Db gauge. A tracheotomy is carried out; a Y-shaped cannula allows a part of the air breathed out to be branched off onto a Statham PM 6 gauge; the cardiac rhythm is measured by integration of the QRS complexes of the electrocardiogram. All these measurements are amplified and recorded on a Beckman Dynograph. The two upper laryngeal nerves are very carefully dissected and stimulated for 10 seconds by a surging current generated by a Hugo Sachs Stimulator I: voltage 3 volts, duration […], frequency 50 cycles/second. The test products are injected into the femoral vein. The first stimulation takes place 5 minutes after administration of the product and then every 5 minutes until the reaction returns to the initial amplitude. Each nerve is stimulated in turn (left-hand nerve: 5, 15, 25 minutes etc; right-hand nerve 10, […] minutes etc. after treatment).
+ marked diminution of cough
++ suppression of cough for 5 to 15 minutes
+++ suppression of cough for more than 15 minutes

[4] = tested on: subjects suffering from chronic bronchitis; assay: Clinical experiments on subjects suffering from chronic bronchitis; format: in vivo, human; details: subjects with chronic bronchitis
Method: Clinical experiments were also carried out with the product of Example 1 on subjects suffering from chronic bronchitis.

O=C(OCCN1CCCCCC1)C1CC1(c1ccccc1)c1ccccc1 (centres unmarked) [Example 7]
LD0 (rats): 64 mg/kg | LD100 (rats): 128 mg/kg | inhibition in vivo at 16 mg/kg [1]: 25% | inhibition in vivo at 64 mg/kg [1]: 25% | solubility under the experimental conditions [2]: insoluble

CC1CCCC(C)N1CCOC(=O)C1CC1(c1ccccc1)c1ccccc1 (centres unmarked) [Example 12]
LD0 (rats): 32 mg/kg | LD100 (rats): 128 mg/kg | inhibition in vivo at 16 mg/kg [1]: 45% | inhibition in vivo at 64 mg/kg [1]: 36%

O=C(OCCN1CCCCC1)C1CC1(c1ccc(Cl)cc1)c1ccc(Cl)cc1 (centres unmarked) [Example 15]
LD0 (rats): 128 mg/kg | LD100 (rats): 256 mg/kg | Rating (anti-tussive activity) [3]: + | inhibition in vivo at 16 mg/kg [1]: 29% | inhibition in vivo at 64 mg/kg [1]: 29%

Cc1ccc(C2(c3ccc(C)cc3)CC2C(=O)OCCN2CCCCC2)cc1 (centres unmarked) [Example 14]
LD0 (rats): 256 mg/kg | LD100 (rats): 512 mg/kg | inhibition in vivo at 16 mg/kg [1]: 35% | inhibition in vivo at 64 mg/kg [1]: 38%

CC1CCN(CCOC(=O)C2CC2(c2ccccc2)c2ccccc2)CC1 (centres unmarked) [Example 11]
LD0 (rats): 64 mg/kg | LD100 (rats): 256 mg/kg | Rating (anti-tussive activity) [3]: + | inhibition in vivo at 16 mg/kg [1]: 22% | inhibition in vivo at 64 mg/kg [1]: 38%

COc1ccc(C2(c3ccc(OC)cc3)CC2C(=O)OCCN2CCCCC2)cc1 (centres unmarked) [Example 16]
LD0 (rats): 128 mg/kg | LD100 (rats): 512 mg/kg | Rating (anti-tussive activity) [3]: + | inhibition in vivo at 16 mg/kg [1]: 40% | inhibition in vivo at 64 mg/kg [1]: 28%

CC1CCCN(CCOC(=O)C2CC2(c2ccccc2)c2ccccc2)C1 (centres unmarked) [Example 10]
LD0 (rats): 64 mg/kg | LD100 (rats): 256 mg/kg | inhibition in vivo at 16 mg/kg [1]: 21% | inhibition in vivo at 64 mg/kg [1]: 46%

CN1CCN(CCOC(=O)C2CC2(c2ccccc2)c2ccccc2)CC1 (centres unmarked) [Example 9]
LD0 (rats): 64 mg/kg | LD100 (rats): 128 mg/kg | Rating (anti-tussive activity) [3]: + | inhibition in vivo at 16 mg/kg [1]: 14% | inhibition in vivo at 64 mg/kg [1]: 19%

CN(C)CCOC(=O)C1CC1(c1ccccc1)c1ccccc1 (centres unmarked) [Example 4]
LD0 (rats): 128 mg/kg | LD100 (rats): 256 mg/kg | inhibition in vivo at 16 mg/kg [1]: 23% | inhibition in vivo at 64 mg/kg [1]: 17%

O=C(OCCOCCN1CCCCCC1)C1CC1(c1ccccc1)c1ccccc1 (centres unmarked) [Example 19]
LD0 (rats): 64 mg/kg | LD100 (rats): 128 mg/kg | Rating (anti-tussive activity) [3]: + | inhibition in vivo at 16 mg/kg [1]: 3% | inhibition in vivo at 64 mg/kg [1]: 26% | solubility under the experimental conditions [2]: insoluble

O=C(OCCOCCN1CCCC1)C1CC1(c1ccccc1)c1ccccc1 (centres unmarked) [Example 2, 2-(2'-pyrrolidino-ethoxy)-ethyl ester of 2,2-diphenyl-cyclopropane carboxylic acid]
LD0 (rats): 32 mg/kg | LD100 (rats): 128 mg/kg | Rating (anti-tussive activity) [3]: + | inhibition in vivo at 16 mg/kg [1]: 57% | inhibition in vivo at 32 mg/kg [1]: 38% | inhibition in vivo at 64 mg/kg [1]: 63%

O=C(OCCOCCN1CCCCC1)C1CC1(c1ccccc1)c1ccccc1 (centres unmarked) [Example 18]
LD0 (rats): 64 mg/kg | LD100 (rats): 256 mg/kg | inhibition in vivo at 16 mg/kg [1]: 43% | inhibition in vivo at 64 mg/kg [1]: 55% | solubility under the experimental conditions [2]: insoluble

O=C(OCCN1CCCCC1)C1CC1(c1ccccc1)c1ccccc1 (stereo not drawn) [Example 1, β-Piperidino-ethyl ester of 2,2-diphenyl-cyclopropane-carboxylic acid]
LD0 (rats): 64 mg/kg | LD100 (rats): 128 mg/kg | inhibition in vivo at 16 mg/kg [1]: 10% | inhibition in vivo at 64 mg/kg [1]: 31% | effect on cough [4]: suppression of the cough | facilitation of expectoration [4]: facilitation of expectoration | sensation of feeling better [4]: a sensation of feeling better | reduction in expectoration ([4]; "the latter" = expectoration): a reduction in the latter

O=C(OCCN1CCCC1)C1CC1(c1ccccc1)c1ccccc1 (centres unmarked) [Example 5]
LD0 (rats): 128 mg/kg | LD100 (rats): 256 mg/kg | inhibition in vivo at 32 mg/kg [1]: 0% | inhibition in vivo at 128 mg/kg [1]: 19%

Cc1ccc(C2(c3ccc(C)cc3)CC2C(=O)OCCN2CCCC2)cc1 (centres unmarked) [Example 13]
LD0 (rats): 128 mg/kg | LD100 (rats): 256 mg/kg | inhibition in vivo at 16 mg/kg [1]: 24% | inhibition in vivo at 64 mg/kg [1]: 24%

O=C(OCCN1CCOCC1)C1CC1(c1ccccc1)c1ccccc1 (stereo not drawn) [Example 3, β-Morpholino-ethyl ester of 2,2-diphenyl-cyclopropane-carboxylic acid]
LD0 (rats): 128 mg/kg | LD100 (rats): 256 mg/kg | inhibition in vivo at 32 mg/kg [1]: 37% | inhibition in vivo at 128 mg/kg [1]: 41%

CN1CCN(CCOCCOC(=O)C2CC2(c2ccccc2)c2ccccc2)CC1 (centres unmarked) [Example 20]
LD0 (rats): 64 mg/kg | LD100 (rats): 128 mg/kg | Rating (anti-tussive activity) [3]: + | inhibition in vivo at 16 mg/kg [1]: 26% | inhibition in vivo at 64 mg/kg [1]: 38%

From patent publication US3937832A, “Esters of 2,2-diphenyl-cyclopropane-carboxylic acids as cough suppressants” (Societe anonyme dite: Hexachimie, priority 1974, dated 1976)
